Experimental data reported in paper PMC10127257, “Engineering mutually orthogonal PylRS/tRNA pairs for dual encoding of functional histidine analogues” (Protein Science : A Publication of the Protein Society, 2023).

Biological target: T1, MaPylRS^IFGFF (Methanomethylophilus alvi, UniProt M9SC49, L125I/Y126F/M129G/V168F/Y206F)
T1 construct: gene MMALV_11280; C-terminal 6-His tag; pET29, E. coli BL21(DE3), Ni-NTA
Assay: X-ray crystallography, […] Å
Format: binding
Details: MgCl2, pH 8; three Mg2+ ions; triethylene glycol in the amino acid pocket

T1 sequence (M9SC49 entry or part of it L125I/Y126F/M129G/V168F/Y206F): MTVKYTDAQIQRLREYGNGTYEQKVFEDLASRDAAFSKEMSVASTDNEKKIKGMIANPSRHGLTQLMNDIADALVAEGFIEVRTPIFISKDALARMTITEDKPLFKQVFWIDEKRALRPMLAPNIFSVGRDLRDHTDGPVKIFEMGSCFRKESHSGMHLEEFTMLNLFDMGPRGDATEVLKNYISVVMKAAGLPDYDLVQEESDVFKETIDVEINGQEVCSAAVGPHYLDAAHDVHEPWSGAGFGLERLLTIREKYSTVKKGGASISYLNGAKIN

Nc1ncnc2c1ncn2[C@@H]1O[C@H](COP(=O)(O)OP(=O)(O)NP(=O)(O)O)[C@@H](O)[C@H]1O [AMP-PNP]
X-ray crystallography, 1.8 Å: bound to the nonreactive ATP analogue adenylyl‐imidodiphosphate (AMP‐PNP, PDB: 8C49
